According to article PMC5558795 (Antiviral research, 2017):
Entries after “also recorded” stand apart in the source; their conditions may differ.

Legend:
Furin = Furin (Homo sapiens, UniProt P09958); test: Fluorescent peptide; assay type: biochemical; conditions: read-out: In vitro IC50, Furin; 20 nM enzyme, 20 μM Pyr-RTKR-AMC
Fetal human NPCs = assay type: cell-based
[1] = tested on: ZIKV (Asian strain, FSS13025); test: ZIKV infection of human fetal neural progenitor cells; assay type: cell-based, Zika virus; conditions: compound up to 100 μM; for Inhibition of ZIKV infection of hfNPCs (in words): MOI 0.1, 4 days; for Cytotoxicity in hfNPCs (in words): Fig. 7A
[2] = design: species or system mice; conditions: mouse, in vivo, ip, 10 mg/kg
ZIKV NS2B-NS3pro = ZIKV NS2B-NS3pro (Zika virus, UniProt A0A024B7W1); test: Fluorescent peptide; assay type: biochemical; conditions: read-out: IC50, ZIKV cleavage activity; Fig. 4A

Chain of Furin (P09958 108-794): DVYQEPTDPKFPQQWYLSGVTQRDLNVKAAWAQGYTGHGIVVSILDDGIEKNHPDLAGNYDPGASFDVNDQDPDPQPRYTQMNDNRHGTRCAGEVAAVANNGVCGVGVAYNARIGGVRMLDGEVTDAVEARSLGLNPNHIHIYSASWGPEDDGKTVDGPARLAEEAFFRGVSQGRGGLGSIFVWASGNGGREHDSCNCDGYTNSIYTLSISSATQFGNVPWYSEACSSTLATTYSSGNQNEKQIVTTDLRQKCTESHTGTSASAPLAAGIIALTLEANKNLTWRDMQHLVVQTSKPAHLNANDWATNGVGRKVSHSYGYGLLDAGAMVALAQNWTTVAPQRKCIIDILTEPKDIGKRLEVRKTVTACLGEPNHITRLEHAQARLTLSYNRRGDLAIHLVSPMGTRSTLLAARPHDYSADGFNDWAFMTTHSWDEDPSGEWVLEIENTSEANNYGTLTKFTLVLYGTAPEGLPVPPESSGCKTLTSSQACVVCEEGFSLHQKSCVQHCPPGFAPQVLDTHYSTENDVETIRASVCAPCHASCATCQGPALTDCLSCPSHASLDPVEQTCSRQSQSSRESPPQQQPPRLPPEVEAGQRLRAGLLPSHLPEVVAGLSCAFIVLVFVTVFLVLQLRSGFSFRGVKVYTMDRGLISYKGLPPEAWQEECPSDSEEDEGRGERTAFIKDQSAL

| Compound | IC50 (Furin) [µM] | Cytotoxicity (TC50) (Fetal human NPCs) [µM] | Inhibition of ZIKV infection of hfNPCs (in words) [1] | Cytotoxicity in hfNPCs (in words) [1] | Plasma half-life [2] | IC50 (ZIKV NS2B-NS3pro) [µM] |
| --- | --- | --- | --- | --- | --- | --- |
| Nc1cc(N)c(N=Nc2ccc(S(=O)(=O)Nc3nccs3)cc2)cc1N=Nc1ccc(S(=O)(=O)Nc2nccs2)cc1 [NSC86314] | > 100 | 212.5 | little or no inhibition | more cytotoxic |  |  |
| CC(=O)C(N=Nc1ccc(S(=O)(=O)Nc2ccccn2)cc1)C(=O)Nc1ccc(Cl)cc1 (stereo not drawn) [NSC134189] | > 100 | 132.3 |  |  |  |  |
| Clc1nc2n[nH]nc2nc1Cl [NSC157058] | > 100 | 257.4 |  | without demonstrating significant cytotoxicity; also recorded: without significant cellular toxicity | ~ 20 min |  |
| Clc1ccc(-c2nn3c(COc4cc(Cl)c(OCc5nnc6sc(-c7ccc(Cl)cc7)nn56)cc4Cl)nnc3s2)cc1 [NSC716897] | > 100 | 178.4 |  |  |  |  |
| Clc1cc(OCc2nnc3sc(Cc4ccccc4)nn23)c(Cl)cc1OCc1nnc2sc(Cc3ccccc3)nn12 [NSC716898] | > 100 | 235.8 |  |  |  |  |
| Clc1ccc(-c2nn3c(COc4cccc(OCc5nnc6sc(-c7ccc(Cl)cc7)nn56)c4)nnc3s2)cc1 [NSC716903] | > 100 | 127.8 | little or no inhibition | more cytotoxic |  |  |
| Fc1cc(C2=Nn3c(COc4ccc(Cl)cc4Cl)nnc3S/C2=C\c2ccc(-c3ccc(Cl)cc3)o2)c(Cl)cc1Cl [NSC719147] | > 100 | 160.3 |  |  |  |  |
| aprotinin |  |  |  |  |  | ~0.07 |
